In publication PMC9386913 (Arthritis Research & Therapy, 2022):
Marks after values point to notes of the source that are not given here.

Test: Phase I multiple ascending-dose study: safety and tolerability (treatment-emergent adverse events)
Assay type: in vivo, human (healthy volunteers)
Procedure: A single-center, randomized, double-blind, placebo-controlled phase I study (NCT03554993) with a MAD component was performed in the UK between May 2018 and July 2019. Thirty-seven healthy volunteers of any race, ethnicity, or sex were enrolled. The inclusion criteria were 18 to 55 years of age inclusive, body mass index 18 to 33 kg/m^2, and physical examination by the investigator without clinically significant findings. Subjects were excluded if any clinically significant medical history, laboratory abnormality, psychiatric illness, or other condition existed that would place the subject at unacceptable risk by participating in the study. Pregnancy prevention guidance was provided as per Clinical Trial Facilitation Group recommendations. Subjects were randomly assigned to daily oral doses of CC-99677 or placebo. Subjects were dosed daily for 14 days. […] Both the investigator and subjects were blinded to the treatment arm. Safety assessments, including physical examinations, clinical laboratory tests, and collection of adverse events (AEs) were performed and graded using MedDRA version 22.0 and the US Food and Drug Administration (FDA) Toxicity Grading Scale for Healthy Adult and Adolescent Volunteers. The primary outcome of this trial was the safety and tolerability of multiple daily doses of CC-99677.

CCOCc1cnc(Cl)nc1Oc1ccc2c(ccc3sc4c(c32)NC[C@@H](C)NC4=O)n1 [CC-99677]
TEAE: Investigations (60 mg daily, 14 days (n = 6)): 0 n (%) | TEAE: Muscle strain (60 mg daily, 14 days (n = 6)): 0 n (%) | TEAE: Musculoskeletal and connective tissue disorders (60 mg daily, 14 days (n = 6)): 0 n (%) | TEAE: Musculoskeletal pain (60 mg daily, 14 days (n = 6)): 0 n (%) | TEAE: Myalgia (60 mg daily, 14 days (n = 6)): 0 n (%) | TEAE: Nasopharyngitis (60 mg daily, 14 days (n = 6)): 0 n (%) | TEAE: Nausea (60 mg daily, 14 days (n = 6)): 0 n (%) | TEAE: Nervous system disorders (60 mg daily, 14 days (n = 6)): 1 (16.7) n (%) | TEAE: Oropharyngeal pain (60 mg daily, 14 days (n = 6)): 0 n (%) | TEAE: Psychiatric disorders (60 mg daily, 14 days (n = 6)): 0 n (%) | TEAE: Rash pustular (60 mg daily, 14 days (n = 6)): 0 n (%) | TEAE: Rectal hemorrhage (60 mg daily, 14 days (n = 6)): 0 n (%) | TEAE: Reproductive system and breast disorders (60 mg daily, 14 days (n = 6)): 0 n (%) | TEAE: Respiratory, thoracic, and mediastinal disorders (60 mg daily, 14 days (n = 6)): 0 n (%) | TEAE: Sensation of foreign body (60 mg daily, 14 days (n = 6)): 0 n (%) | TEAE: Vascular disorders (60 mg daily, 14 days (n = 6)): 0 n (%) | TEAE: Vessel puncture site pain (60 mg daily, 14 days (n = 6)): 0 n (%) | TEAE: Vessel puncture site reaction (60 mg daily, 14 days (n = 6)): 0 n (%) | Subjects with ≥ 1 treatment-emergent AE (120 mg daily, 14 days (n = 6)): 3 (50.0) n (%) | TEAE: Abdominal pain (120 mg daily, 14 days (n = 6)): 1 (16.7) n (%) | TEAE: Alanine aminotransferase increased (120 mg daily, 14 days (n = 6)): 1 (16.7) n (%) | TEAE: Aspartate aminotransferase increased (120 mg daily, 14 days (n = 6)): 0 n (%) | TEAE: Back pain (120 mg daily, 14 days (n = 6)): 0 n (%) | TEAE: Blood creatine phosphokinase increased (120 mg daily, 14 days (n = 6)): 0 n (%) | TEAE: Catheter site related reaction (120 mg daily, 14 days (n = 6)): 0 n (%) | TEAE: Chapped lips (120 mg daily, 14 days (n = 6)): 0 n (%) | TEAE: Constipation (120 mg daily, 14 days (n = 6)): 0 n (%) | TEAE: Diarrhea (120 mg daily, 14 days (n = 6)): 1 (16.7) n (%) | TEAE: Dizziness (120 mg daily, 14 days (n = 6)): 0 n (%) | TEAE: Dysmenorrhea (120 mg daily, 14 days (n = 6)): 0 n (%) | TEAE: Dyspepsia (120 mg daily, 14 days (n = 6)): 0 n (%) | TEAE: Ear and labyrinth disorders (120 mg daily, 14 days (n = 6)): 0 n (%) | TEAE: Ear pain (120 mg daily, 14 days (n = 6)): 0 n (%) | TEAE: Flushing (120 mg daily, 14 days (n = 6)): 0 n (%) | TEAE: Gastrointestinal disorders (120 mg daily, 14 days (n = 6)): 1 (16.7) n (%) | TEAE: General disorders and administration site conditions (120 mg daily, 14 days (n = 6)): 0 n (%) | TEAE: Headache (120 mg daily, 14 days (n = 6)): 1 (16.7) n (%) | TEAE: Hot flush (120 mg daily, 14 days (n = 6)): 0 n (%) | TEAE: Infections and infestations (120 mg daily, 14 days (n = 6)): 0 n (%) | TEAE: Injury, poisoning, and procedural complications (120 mg daily, 14 days (n = 6)): 0 n (%) | TEAE: Insomnia (120 mg daily, 14 days (n = 6)): 0 n (%) | TEAE: Investigations (120 mg daily, 14 days (n = 6)): 1 (16.7) n (%) | TEAE: Muscle strain (120 mg daily, 14 days (n = 6)): 0 n (%) | TEAE: Musculoskeletal and connective tissue disorders (120 mg daily, 14 days (n = 6)): 1 (16.7) n (%) | TEAE: Musculoskeletal pain (120 mg daily, 14 days (n = 6)): 1 (16.7) n (%) | TEAE: Myalgia (120 mg daily, 14 days (n = 6)): 0 n (%) | TEAE: Nasopharyngitis (120 mg daily, 14 days (n = 6)): 0 n (%) | TEAE: Nausea (120 mg daily, 14 days (n = 6)): 0 n (%) | TEAE: Nervous system disorders (120 mg daily, 14 days (n = 6)): 1 (16.7) n (%) | TEAE: Oropharyngeal pain (120 mg daily, 14 days (n = 6)): 1 (16.7) n (%) | TEAE: Psychiatric disorders (120 mg daily, 14 days (n = 6)): 0 n (%) | TEAE: Rash pustular (120 mg daily, 14 days (n = 6)): 0 n (%) | TEAE: Rectal hemorrhage (120 mg daily, 14 days (n = 6)): 0 n (%) | TEAE: Reproductive system and breast disorders (120 mg daily, 14 days (n = 6)): 0 n (%) | TEAE: Respiratory, thoracic, and mediastinal disorders (120 mg daily, 14 days (n = 6)): 1 (16.7) n (%) | TEAE: Sensation of foreign body (120 mg daily, 14 days (n = 6)): 0 n (%) | TEAE: Vascular disorders (120 mg daily, 14 days (n = 6)): 0 n (%) | TEAE: Vessel puncture site pain (120 mg daily, 14 days (n = 6)): 0 n (%) | TEAE: Vessel puncture site reaction (120 mg daily, 14 days (n = 6)): 0 n (%) | Subjects with ≥ 1 treatment-emergent AE (150 mg daily, 14 days (n = 5)): 2 (40.0) n (%) | TEAE: Abdominal pain (150 mg daily, 14 days (n = 5)): 0 n (%) | TEAE: Alanine aminotransferase increased (150 mg daily, 14 days (n = 5)): 0 n (%) | TEAE: Back pain (150 mg daily, 14 days (n = 5)): 0 n (%) | TEAE: Catheter site related reaction (150 mg daily, 14 days (n = 5)): 0 n (%) | TEAE: Chapped lips (150 mg daily, 14 days (n = 5)): 0 n (%) | TEAE: Constipation (150 mg daily, 14 days (n = 5)): 0 n (%) | TEAE: Diarrhea (150 mg daily, 14 days (n = 5)): 0 n (%) | TEAE: Dizziness (150 mg daily, 14 days (n = 5)): 0 n (%) | TEAE: Dysmenorrhea (150 mg daily, 14 days (n = 5)): 1 (20.0) n (%) | TEAE: Dyspepsia (150 mg daily, 14 days (n = 5)): 0 n (%) | TEAE: Ear and labyrinth disorders (150 mg daily, 14 days (n = 5)): 0 n (%) | TEAE: Ear pain (150 mg daily, 14 days (n = 5)): 0 n (%) | TEAE: Flushing (150 mg daily, 14 days (n = 5)): 1 (20.0) n (%) | TEAE: Gastrointestinal disorders (150 mg daily, 14 days (n = 5)): 0 n (%) | TEAE: General disorders and administration site conditions (150 mg daily, 14 days (n = 5)): 0 n (%) | TEAE: Headache (150 mg daily, 14 days (n = 5)): 0 n (%) | TEAE: Hot flush (150 mg daily, 14 days (n = 5)): 0 n (%) | TEAE: Infections and infestations (150 mg daily, 14 days (n = 5)): 0 n (%) | TEAE: Injury, poisoning, and procedural complications (150 mg daily, 14 days (n = 5)): 0 n (%) | TEAE: Insomnia (150 mg daily, 14 days (n = 5)): 0 n (%) | TEAE: Investigations (150 mg daily, 14 days (n = 5)): 1 (20.0) n (%) | TEAE: Muscle strain (150 mg daily, 14 days (n = 5)): 0 n (%) | TEAE: Musculoskeletal and connective tissue disorders (150 mg daily, 14 days (n = 5)): 0 n (%) | TEAE: Musculoskeletal pain (150 mg daily, 14 days (n = 5)): 0 n (%) | TEAE: Myalgia (150 mg daily, 14 days (n = 5)): 0 n (%) | TEAE: Nasopharyngitis (150 mg daily, 14 days (n = 5)): 0 n (%) | TEAE: Nausea (150 mg daily, 14 days (n = 5)): 0 n (%) | TEAE: Nervous system disorders (150 mg daily, 14 days (n = 5)): 0 n (%) | TEAE: Oropharyngeal pain (150 mg daily, 14 days (n = 5)): 0 n (%) | TEAE: Psychiatric disorders (150 mg daily, 14 days (n = 5)): 0 n (%) | TEAE: Rash pustular (150 mg daily, 14 days (n = 5)): 0 n (%) | TEAE: Rectal hemorrhage (150 mg daily, 14 days (n = 5)): 0 n (%) | TEAE: Reproductive system and breast disorders (150 mg daily, 14 days (n = 5)): 1 (20.0) n (%) | TEAE: Respiratory, thoracic, and mediastinal disorders (150 mg daily, 14 days (n = 5)): 0 n (%) | TEAE: Sensation of foreign body (150 mg daily, 14 days (n = 5)): 0 n (%) | TEAE: Vascular disorders (150 mg daily, 14 days (n = 5)): 1 (20.0) n (%) | TEAE: Vessel puncture site pain (150 mg daily, 14 days (n = 5)): 0 n (%) | TEAE: Vessel puncture site reaction (150 mg daily, 14 days (n = 5)): 0 n (%) | TEAE: Blood creatine phosphokinase increased (150 mg daily, 14 days (n = 5), occurred 14 days after the end of dosing following greater-than-usual physical activity, same individual as AST increase): 1 (20.0)^a n (%) | TEAE: Aspartate aminotransferase increased (150 mg daily, 14 days (n = 5), occurred 14 days after the end of dosing following greater-than-usual physical activity, same individual as CPK increase): 1 (20.0)^a n (%) | Dose dependency of the incidence of TEAEs (10 to 150 mg): no apparent CC-99677 dose dependency | Serious treatment-emergent adverse events (14 consecutive days of dosing, 5 dose-level cohorts 10 to 150 mg): no serious treatment-emergent adverse events (TEAEs) were observed | AEs not suspected to be related to CC-99677 (blinded investigator assessment) (MAD study): 69% | Discontinuation because of safety reasons (MAD study): No subject discontinued | Severity grade of TEAEs (FDA toxicity grading scale) (MAD study, 10 to 150 mg daily, 14 days): mild (grade 1) | Subjects with TEAEs (all subjects receiving CC-99677 (n = 28), placebo 77.8%): 46.4%
